Experimental findings from ChEMBL document CHEMBL1201862, “PubChem BioAssay data set” (2004) are described below.

The target in test [1] is T1, Sentrin-specific protease 7 (Homo sapiens, UniProt Q9BQF6).
T1 sequence (Q9BQF6 whole entry): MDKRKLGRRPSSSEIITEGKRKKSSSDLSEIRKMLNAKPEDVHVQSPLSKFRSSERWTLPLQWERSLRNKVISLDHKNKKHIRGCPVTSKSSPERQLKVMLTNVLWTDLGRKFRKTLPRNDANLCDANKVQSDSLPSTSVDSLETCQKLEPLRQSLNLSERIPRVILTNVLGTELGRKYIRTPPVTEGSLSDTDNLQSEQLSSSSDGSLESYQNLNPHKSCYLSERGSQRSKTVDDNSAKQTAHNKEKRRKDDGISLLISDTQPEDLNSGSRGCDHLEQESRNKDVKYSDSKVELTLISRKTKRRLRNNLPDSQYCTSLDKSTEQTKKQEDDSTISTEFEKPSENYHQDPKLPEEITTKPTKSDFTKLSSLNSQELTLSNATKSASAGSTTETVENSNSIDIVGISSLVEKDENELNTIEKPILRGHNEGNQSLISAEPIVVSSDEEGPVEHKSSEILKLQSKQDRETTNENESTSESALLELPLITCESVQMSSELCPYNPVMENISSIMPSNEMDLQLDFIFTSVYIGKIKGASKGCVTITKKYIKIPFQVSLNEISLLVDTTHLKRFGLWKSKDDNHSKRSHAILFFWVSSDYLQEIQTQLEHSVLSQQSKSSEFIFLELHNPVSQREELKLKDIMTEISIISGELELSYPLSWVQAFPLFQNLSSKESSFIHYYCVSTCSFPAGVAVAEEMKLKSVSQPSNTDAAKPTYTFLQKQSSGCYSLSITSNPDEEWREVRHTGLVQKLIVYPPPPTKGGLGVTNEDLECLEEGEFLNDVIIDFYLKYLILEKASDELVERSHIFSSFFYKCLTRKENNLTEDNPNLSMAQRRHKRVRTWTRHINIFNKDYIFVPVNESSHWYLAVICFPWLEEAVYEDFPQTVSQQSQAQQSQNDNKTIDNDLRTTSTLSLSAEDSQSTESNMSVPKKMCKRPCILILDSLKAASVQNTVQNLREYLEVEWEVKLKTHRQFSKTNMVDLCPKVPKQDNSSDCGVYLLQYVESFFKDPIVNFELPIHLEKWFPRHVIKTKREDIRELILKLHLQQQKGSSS
The class given is functional.

Test [2] addresses T1, Sentrin-specific protease 7. Description: SENP7 protease inhibitors, SAR follow-up, biochemical, luminescence (AID 504497). The class given is functional.
A further test has as its system HeLa. Description: HeLa cell cytotoxicity, dose response, cytotoxicity control for MITF activator project, CellTiter-Glo luminescence, cherry-pick samples (AID 540259). The note with it: Homo sapiens. The class given is functional, cell-based.
Test [3] addresses T2, Caspase-3 (Homo sapiens, UniProt P42574).
T2 sequence (P42574 whole entry): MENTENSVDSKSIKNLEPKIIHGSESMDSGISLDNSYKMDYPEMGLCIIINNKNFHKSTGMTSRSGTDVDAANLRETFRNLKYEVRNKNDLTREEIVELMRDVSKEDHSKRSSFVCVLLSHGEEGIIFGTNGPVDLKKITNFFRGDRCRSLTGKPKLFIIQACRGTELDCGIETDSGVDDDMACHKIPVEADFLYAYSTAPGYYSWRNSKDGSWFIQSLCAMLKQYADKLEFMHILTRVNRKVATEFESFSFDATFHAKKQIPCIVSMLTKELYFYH
The class given is functional.

Test [4] has as its target T3, Sentrin-specific protease 8 (Homo sapiens, UniProt Q96LD8).
T3 sequence (Q96LD8 whole entry): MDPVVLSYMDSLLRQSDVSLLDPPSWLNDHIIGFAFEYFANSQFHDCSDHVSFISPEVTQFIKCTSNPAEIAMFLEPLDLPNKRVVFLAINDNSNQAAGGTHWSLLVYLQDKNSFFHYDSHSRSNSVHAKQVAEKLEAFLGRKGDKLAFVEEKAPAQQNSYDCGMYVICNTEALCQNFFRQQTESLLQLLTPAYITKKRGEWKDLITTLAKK
The class given is functional.

The target of test [5] is T4, Sentrin-specific protease 6 (Homo sapiens, UniProt Q9GZR1).
T4 sequence (Q9GZR1 whole entry): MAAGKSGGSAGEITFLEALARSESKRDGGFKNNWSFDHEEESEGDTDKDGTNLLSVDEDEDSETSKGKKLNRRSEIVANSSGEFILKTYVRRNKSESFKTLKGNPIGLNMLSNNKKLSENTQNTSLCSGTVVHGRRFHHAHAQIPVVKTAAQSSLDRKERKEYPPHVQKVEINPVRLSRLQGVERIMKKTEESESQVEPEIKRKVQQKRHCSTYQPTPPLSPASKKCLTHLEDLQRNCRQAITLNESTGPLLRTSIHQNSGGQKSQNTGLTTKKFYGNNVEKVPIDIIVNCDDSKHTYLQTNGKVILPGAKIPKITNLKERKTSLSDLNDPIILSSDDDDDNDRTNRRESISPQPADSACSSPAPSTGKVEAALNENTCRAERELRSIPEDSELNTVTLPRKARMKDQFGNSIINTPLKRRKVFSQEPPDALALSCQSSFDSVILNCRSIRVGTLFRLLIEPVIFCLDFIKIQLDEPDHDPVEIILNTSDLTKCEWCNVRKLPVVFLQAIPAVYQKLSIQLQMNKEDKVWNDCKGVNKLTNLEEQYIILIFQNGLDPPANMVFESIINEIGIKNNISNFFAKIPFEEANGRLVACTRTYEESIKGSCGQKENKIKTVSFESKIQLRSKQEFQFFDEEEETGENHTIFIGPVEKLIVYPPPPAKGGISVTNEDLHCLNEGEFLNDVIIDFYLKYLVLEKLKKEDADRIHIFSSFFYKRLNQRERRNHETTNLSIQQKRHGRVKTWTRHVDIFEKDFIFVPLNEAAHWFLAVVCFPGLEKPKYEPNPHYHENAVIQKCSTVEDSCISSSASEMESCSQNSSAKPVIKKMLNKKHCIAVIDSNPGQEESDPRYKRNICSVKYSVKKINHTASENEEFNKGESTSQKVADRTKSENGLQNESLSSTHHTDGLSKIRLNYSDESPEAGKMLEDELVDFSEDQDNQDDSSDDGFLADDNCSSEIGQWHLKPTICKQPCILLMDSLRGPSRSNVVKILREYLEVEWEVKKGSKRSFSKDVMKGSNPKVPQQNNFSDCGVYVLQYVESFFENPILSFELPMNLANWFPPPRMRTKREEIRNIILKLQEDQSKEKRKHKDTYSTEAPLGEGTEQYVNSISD
Description: SAR Analysis of small molecule inhibitors of Sentrin-specific protease 6 (SENP6) using a Luminescent assay. [Related pubchem assays (depositor defined):AID2582, AID2599]. The class given is functional.

In test [6] the target is T4, Sentrin-specific protease 6. The class given is functional.
Test [7] has as its target T3, Sentrin-specific protease 8. In words: SENP8 protease inhibitors, SAR follow-up, biochemical, luminescence (AID 504501). The class given is functional.
For test [8], the target named is T2, Caspase-3. In words: SAR Analysis of small molecule inhibitors of Sentrin-specific proteases (SENPs) using a Caspase-3 Selectivity assay. [Related pubchem assays (depositor defined):AID2540, AID2599, AID434973, AID489001]. The class given is functional.
A short description of test [9]: Counterscreen for antagonists of the orexin 1 receptor (OX1R; HCRTR1): Fluorescence-based cell-based high throughput dose response assay to identify antagonists of the parental CHO cell line. [Related pubchem assays (depositor defined):AID434989, AID435008, AID463079, AID485270, AID492963, AID492964, AID492965, AID493232, AID504699, AID504701]. The class given is functional. A general note: Counterscreens check selectivity or assay interference.

Another test concerns CHO-K1. Description: Counterscreen for antagonists of the orexin 1 receptor (OX1R; HCRTR1): Homogeneous time resolved fluorescence (HTRF)-based cell-based dose response assay to identify antagonists of the parental CHO-K1 cell line. [Related pubchem assays (depositor defined):AID434989, AID435008, AID463079, AID485270, AID492963, AID492964, AID492965, AID493232, AID504699, AID504701]. The class given is functional. Particulars: Cricetulus griseus.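 Further: potency for inhibition of ATP-stimulated IP1 production as antagonists.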

Test [10] addresses T5, Orexin receptor type 2 (Homo sapiens, UniProt O43614).
T5 sequence (O43614 whole entry): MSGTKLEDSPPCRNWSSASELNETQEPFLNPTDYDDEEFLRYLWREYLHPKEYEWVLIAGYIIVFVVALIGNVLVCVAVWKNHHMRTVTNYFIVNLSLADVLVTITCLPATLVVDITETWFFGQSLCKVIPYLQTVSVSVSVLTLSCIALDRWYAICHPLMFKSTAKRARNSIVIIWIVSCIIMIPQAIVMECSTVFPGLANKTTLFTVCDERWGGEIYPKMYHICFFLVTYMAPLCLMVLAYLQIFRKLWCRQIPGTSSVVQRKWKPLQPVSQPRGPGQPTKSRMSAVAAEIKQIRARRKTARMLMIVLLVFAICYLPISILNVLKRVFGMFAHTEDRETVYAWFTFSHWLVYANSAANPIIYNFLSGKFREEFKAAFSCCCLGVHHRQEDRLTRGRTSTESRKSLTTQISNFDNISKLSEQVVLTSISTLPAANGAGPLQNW
In words: Counterscreen assay for antagonists of the orexin 1 receptor (OX1R; HCRTR1): Homogeneous Time Resolved Fluorescence (HTRF)-based cell-based dose response assay for antagonists of the orexin 2 receptor (OX2R; HCRTR2), run by assay provider. The class given is functional.

Test [11] concerns the target T6, Orexin/Hypocretin receptor type 1 (Homo sapiens, UniProt O43613).
T6 sequence (O43613 whole entry): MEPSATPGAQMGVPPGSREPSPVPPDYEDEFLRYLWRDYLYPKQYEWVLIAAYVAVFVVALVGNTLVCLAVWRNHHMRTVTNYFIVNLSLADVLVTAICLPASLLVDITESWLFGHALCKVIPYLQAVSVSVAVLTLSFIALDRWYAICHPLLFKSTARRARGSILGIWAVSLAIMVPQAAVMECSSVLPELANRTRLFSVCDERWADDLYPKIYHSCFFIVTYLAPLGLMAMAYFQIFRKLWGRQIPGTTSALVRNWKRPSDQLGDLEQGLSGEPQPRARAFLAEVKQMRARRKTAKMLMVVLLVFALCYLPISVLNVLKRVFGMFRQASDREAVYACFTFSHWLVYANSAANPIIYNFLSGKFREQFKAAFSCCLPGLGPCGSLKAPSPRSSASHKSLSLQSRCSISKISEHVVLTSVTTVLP
In words: Homogeneous Time Resolved Fluorescence (HTRF)-based cell-based high throughput dose response assay for antagonists of the orexin 1 receptor (OX1R; HCRTR1). [Related pubchem assays (depositor defined):AID434989, AID435008, AID463079, AID485270, AID492963, AID492964, AID492965, AID493232, AID504717, AID504718]. The class given is functional. On the technique in general: TR-FRET usually uses a lanthanide donor and a delayed reading to cut background.

For test [12], the target named is T5, Orexin receptor type 2. In words: Counterscreen assay for antagonists of the orexin 1 receptor (OX1R; HCRTR1): Fluorescence-based cell-based dose response assay for antagonists of the orexin 2 receptor (OX2R; HCRTR2), run by assay provider. The class given is functional.
Test [13] addresses T6, Orexin/Hypocretin receptor type 1. Description: Fluorescence-based cell-based high throughput dose response assay for antagonists of the orexin 1 receptor (OX1R; HCRTR1). [Related pubchem assays (depositor defined):AID434989, AID435008, AID463079, AID485270, AID492963, AID492964, AID492965, AID493232, AID504717, AID504718]. The class given is functional.

Active and inactive are the calls of the source.

As a reminder, the IC50 is the concentration that inhibits the measured activity by half. What is called AC50 is the concentration giving half of the maximal activity seen. As to `Fc1ccccc1COc1ccc(C(=S)N2CCCC2)cc1`, the IC50 is 10.9 µM (active) in [1]; 1.64 µM (active) in [2]; 9.99 µM (active) at Caspase-3 [3]; 3.21 µM (active) in test [4]; 1.17 µM (active) in test [5]; 17.1 µM (active) in test [6]. The half-maximal inhibitory concentration (IC50) in [7] was 1.55 µM (active); at Caspase-3 [8], 0.742 µM (active). The concentration at half-maximal activity (AC50) in the test with HeLa was 162 µM (active).

`c1ccc(N2CCN(c3ncnc4c3oc3ccccc34)CC2)cc1`: the IC50 in test [9] is 17.7 µM (inactive); with CHO-K1, > 66.3 µM (inactive); at Orexin receptor type 2 [10] it was > 50 µM (inactive); in [11] it was 4.71 µM (active); on Orexin receptor type 2 [12], > 88.8 µM (inactive); in test [13] it was 12.4 µM (inactive).

For the molecule `C=CCSC1=C(C#N)C(c2ccccc2Cl)C(C(=O)c2cccs2)C(O)(C(F)(F)F)N1` (stereo unspecified), the IC50 is 25 µM (inactive) in test [9]; > 66.2 µM (inactive) with CHO-K1; 15.2 µM (inactive) at Orexin receptor type 2 [10]; 0.405 µM (active) in [11]; 10.3 µM (inactive) on Orexin receptor type 2 [12]; 1.62 µM (active) in test [13].
